{"source": "patent US9675064B2", "about": "“Microbicidal composition” (Dow Global Technologies LLC, priority 2013, dated 2017)", "assay_type_in_all_cases": "cell-based", "key": {"any organism tested": {"tested_on": "any organism tested", "assay": "Synergy index test, summary statements over the organisms tested", "settings": "for Synergy of biocide paired with surfactant: against any organism tested; for ratio of surfactant to biocide where synergy was observed: not commercially relevant (less biocide relative to surfactant)", "description": "Surfactants and biocides were evaluated for synergy by determining the synergy index (S.I.) of the combination. Synergy index was calculated based on minimum inhibitory concentrations (MIC) of two antimicrobial compounds (A and B) alone and in combinations. The tests organisms were Gram negative bacteria (Pseudomonas aeruginosa ATCC #15442), Gram positive bacteria (Staphylococcus aureus ATCC #6538), yeast (Candida albicans ATCC#10203) and mold (Aspergillus niger ATCC#16404). Contact time for the bacteria was 24 and 48 hours, yeast was 48 and 72 hrs, and 3 and 7 days for mold. The test was carried out in 96 well microtiter plates. R^1O(CH2CH(CH3)O)5(CH2CH2O)9H, Surf. A where R^1 is 2-ethylhexyl R^2O(CH2CH(CH3)O)3(CH2CH2O)5H Surf. D R^2O(CH2CH(CH3)O)3(CH2CH2O)7H Surf. E In Surf. D and Surf. E, R^2 is a mixture of C8-C14 linear alkyl groups (70% C8-C10 linear alkyl and 30% C12-C14 linear alkyl)\nSI is calculated as follows: Ca/CA+Cb/CB=Synergy Index (“SI”)\nWherein: • CA=concentration of compound A in ppm, acting alone, which produced an end point (MIC of Compound A). • Ca=concentration of compound A in ppm, in the mixture, which produced an end point. • CB=concentration of compound B in ppm, acting alone, which produced an end point (MIC of Compound B). • Cb=concentration of compound B in ppm, in the mixture, which produced an end point. When the sum of Ca/CA and Cb/CB is greater than one, antagonism is indicated."}, "[1]": {"tested_on": "Staphylococcus aureus ATCC #6538", "assay": "MIC / synergy index test in 96 well microtiter plates, Gram positive bacteria", "settings": "for CB (MIC of compound B acting alone): S. aureus ATCC# 6538, 24 hrs", "description": "(§1) Surfactants and biocides were evaluated for synergy by determining the synergy index (S.I.) of the combination. Synergy index was calculated based on minimum inhibitory concentrations (MIC) of two antimicrobial compounds (A and B) alone and in combinations. The tests organisms were Gram negative bacteria (Pseudomonas aeruginosa ATCC #15442), Gram positive bacteria (Staphylococcus aureus ATCC #6538), yeast (Candida albicans ATCC#10203) and mold (Aspergillus niger ATCC#16404). Contact time for the bacteria was 24 and 48 hours, yeast was 48 and 72 hrs, and 3 and 7 days for mold. The test was carried out in 96 well microtiter plates. […] E In Surf. D and Surf. […] [table] […] SI is calculated as follows: Ca/CA+Cb/CB=Synergy Index (“SI”) Wherein: • CA=concentration of compound A in ppm, acting alone, which produced an end point (MIC of Compound A). • Ca=concentration of compound A in ppm, in the mixture, which produced an end point. • CB=concentration of compound B in ppm, acting alone, which produced an end point (MIC of Compound B). • Cb=concentration of compound B in ppm, in the mixture, which produced an end point. When the sum of Ca/CA and Cb/CB is greater than one, antagonism is indicated."}, "[2]": {"tested_on": "Candida albicans ATCC#10203", "assay": "MIC / synergy index test in 96 well microtiter plates, yeast", "settings": "for MIC: Candida albicans, ATCC10203, 48 h", "description": "as §1"}, "[3]": {"tested_on": "Pseudomonas aeruginosa ATCC #15442", "assay": "MIC / synergy index test in 96 well microtiter plates, Gram negative bacteria", "description": "as §1"}, "[4]": {"tested_on": "Aspergillus niger ATCC#16404", "assay": "MIC / synergy index test in 96 well microtiter plates, mold", "settings": "A. niger ATCC#16404, 3rd day, Media PDB; for MIC: Aspergillus niger, ATCC16404, read-out: CB (MIC of compound B acting alone), B: Potassium Sorbate", "description": "as §1"}}, "note": "Where two headings read alike, the source gives them in different places."}
{"smiles": "O=[N+]([O-])C(CO)(CO)CO", "note": "[TRIS NITRO]", "values": [{"measurement": "Synergy of biocide paired with surfactant", "setting": "any organism tested; paired with Surf. A", "value": "no synergy"}]}
{"smiles": "Oc1ccccc1-c1ccccc1", "note": "[OPP]", "values": [{"measurement": "Synergy of biocide paired with surfactant", "setting": "any organism tested; paired with Surf. D", "value": "no synergy"}]}
{"smiles": "C/C=C/C=C/C(=O)[O-].[K+]", "note": "[Potassium Sorbate]", "values": [{"measurement": "CB (MIC of compound B acting alone)", "setting": "[1]; B: Potassium Sorbate, Media 1/10TSB, inoculum 1.808E+06 CFU/ml", "value": 30000, "unit": "ppm"}, {"measurement": "MIC", "setting": "[1]; Staphylococcus aureus, ATCC6538, 24 h, read-out: CB (MIC of compound B acting alone)", "value": 30000, "unit": "µg/mL"}, {"measurement": "MIC", "setting": "[2]; read-out: CB (MIC of compound B acting alone), B: Potassium Sorbate, C. albicans ATCC#10203, Media PDB, inoculum 1.156E+06 CFU/ml", "value": 800, "unit": "µg/mL"}, {"measurement": "MIC", "setting": "[2]; read-out: CB (MIC of compound B acting alone), B: Potassium Sorbate, C. albicans ATCC#10203, Media PDB, inoculum 1.808E+06 CFU/ml", "value": 600, "unit": "µg/mL"}, {"measurement": "MIC", "setting": "[2]; read-out: CB (MIC of compound B acting alone), B: Potassium Sorbate, C. albicans ATCC#10203, Media PDB, inoculum 5.726E+05 CFU/ml", "value": 1200, "unit": "µg/mL"}, {"measurement": "MIC", "setting": "[3]; Pseudomonas aeruginosa, ATCC15442, 24 h, read-out: CB (MIC of compound B acting alone)", "value": 15000, "unit": "µg/mL"}, {"measurement": "MIC", "setting": "[4]; inoculum 1.156E+06 (table with Surf. D)", "value": 6000, "unit": "µg/mL"}, {"measurement": "MIC", "setting": "[4]; inoculum 1.156E+06 CFU/ml (table with Surf. A)", "value": 1000, "unit": "µg/mL"}, {"measurement": "MIC", "setting": "[4]; inoculum 1.156E+06 CFU/ml (table with Surf. E)", "value": 1000, "unit": "µg/mL"}]}
{"smiles": "CCCCCCCCCC[N+](C)(C)CCCCCCCCCC.[Cl-]", "note": "[DIDAC]", "values": [{"measurement": "ratio of surfactant to biocide where synergy was observed", "setting": "any organism tested; combination with Surf. A", "value": "1:0.2 or greater"}, {"measurement": "ratio of surfactant to biocide where synergy was observed", "setting": "any organism tested; combination with Surf. D", "value": "1:0.2 or greater"}]}
{"smiles": "O=C([O-])c1ccccc1.[Na+]", "note": "[Sodium Benzoate]", "values": [{"measurement": "CB (MIC of compound B acting alone)", "setting": "[1]; B: Sodium Benzoate, Media 1/10 TSB, inoculum 1.808E+05", "value": 30000, "unit": "ppm"}, {"measurement": "CB (MIC of compound B acting alone)", "setting": "[1]; B: Sodium benzoate, Media 1/10TSB, inoculum 1.808E+06 CFU/ml", "value": 30000, "unit": "ppm"}, {"measurement": "CB (MIC of compound B acting alone)", "setting": "[2]; B: Sodium Benzoate, C. albicans ATCC#10203, 48 hrs, Media PDB, inoculum 5.726E+05 CFU/ml", "value": 1200, "unit": "ppm"}, {"measurement": "CB (MIC of compound B acting alone)", "setting": "[3]; B: Sodium Benzoate, Ps. aeruginosa ATCC#15442, 48 hrs, Media 1/10TSB, inoculum 5.727E+07 CFU/ml", "value": 14991, "unit": "ppm"}, {"measurement": "CB (MIC of compound B acting alone)", "setting": "[4]; B: Sodium Benzoate, inoculum 1.156E+06", "value": 5998, "unit": "ppm"}, {"measurement": "Synergy of biocide paired with surfactant", "setting": "any organism tested; paired with Surf. A", "value": "no synergy"}]}
{"smiles": "CCCCCCCCn1sccc1=O", "note": "[OIT]", "values": [{"measurement": "ratio of surfactant to biocide where synergy was observed", "setting": "any organism tested; combination with Surf. D", "value": "1:0.2 or greater"}, {"measurement": "ratio of surfactant to biocide where synergy was observed", "setting": "any organism tested; combination with Surf. E", "value": "1:0.2 or greater"}]}
{"smiles": "Cn1sc2ccccc2c1=O", "note": "[MBIT]", "values": [{"measurement": "ratio of surfactant to biocide where synergy was observed", "setting": "any organism tested; combination with Surf. D", "value": "1:0.05 or worse"}]}
{"smiles": "CC1(C)C(=O)N(CO)C(=O)N1CO", "note": "[DMDMH]", "values": [{"measurement": "Synergy of biocide paired with surfactant", "setting": "any organism tested; paired with Surf. D", "value": "no synergy"}, {"measurement": "Synergy of biocide paired with surfactant", "setting": "any organism tested; paired with Surf. E", "value": "no synergy"}]}
{"smiles": "CCC12COCN1COC2", "note": "[CS-1246]", "values": [{"measurement": "Synergy of biocide paired with surfactant", "setting": "any organism tested; paired with Surf. D", "value": "no synergy"}]}
{"smiles": "CCCCCCCCCCCCCC[P+](CCCC)(CCCC)CCCC.[Cl-]", "note": "[TTPC]", "values": [{"measurement": "ratio of surfactant to biocide where synergy was observed", "setting": "any organism tested; combination with Surf. E", "value": "1:0.2 or greater"}]}
{"smiles": "CCCCNC(=O)OCC#CI", "note": "[IPBC]", "values": [{"measurement": "ratio of surfactant to biocide where synergy was observed", "setting": "any organism tested; combination with Surf. A", "value": "1:0.2 or greater"}, {"measurement": "ratio of surfactant to biocide where synergy was observed", "setting": "any organism tested; combination with Surf. D", "value": "1:0.05 or worse"}, {"measurement": "ratio of surfactant to biocide where synergy was observed", "setting": "any organism tested; combination with Surf. E", "value": "1:0.2 or greater"}]}
